Data as given in patent US20250066286A1, “COMPOSITIONS OF (Z)-ENDOXIFEN AND METHODS OF ENRICHMENT THEREOF” (Atossa Therapeutics, Inc., priority 2022, published 2025).
Read-outs that look alike come from different tables or passages of the source. Each block holds one compound with its values, some of them ahead of it.

How the values were obtained:
[1] = cited from earlier work
[2] = Storage stability of polymorphic forms at room temperature in a sealed vial (XRPD time course); format: physicochemical; details: room temperature
Protocol: Form I samples were collected for XR-PD analysis following 0, 7, and 42 days of storage, the results of which are shown in FIG. 10.
The stability of polymorphic Form IV was evaluated over 7 days of storage at room temperature in a sealed vial. Portions of the Form IV samples were collected for XRPD analysis following 0 (Form IV), 3 (Form IV-3D3-storage), and 7 days (Form IV-7D3-storage) of storage, the results of which are shown in FIG. 14.
The stability of polymorphic Form IV was also evaluated following crystallization from a room temperature 2-propanol/THF 95/5 (v/v) solvent system containing 40 mg/ml (Z)-endoxifen. XPRD was collected immediately after recovery and following 15 days storage at room temperature in a sealed vial. FIG. 15 provides the resultant XRPD patterns following 15 days storage (Form IV-2PR/THF-15D-storage) and 0 days storage (Form IV-2PR/THF-0D-storage), as well as an XRPD spectrum of Form IV (Form IV) obtained from 2-propanol recrystallization.
Since the room temperature evaporation in acetone yielded a mixture of polymorphic Form I and Form IV XRPD patterns with a very intense unassigned signal at 16.1° 2θ, the sample was re-measured following 7 days storage in a sealed vial. From top to bottom, FIG. 16 provides XRPD patterns of the acetone-generated polymorphs following 7 (EVRT-ACT-7D-storage) and 0 days of storage (EVRT-ACT-0D-storage), a Form IV spectrum (Form IV), and a Form I (Form I) spectrum, respectively.
Form XVII was further assessed after 3 days storage in a sealed vial at room temperature.
Form XVIII was further reassessed by XRPD following 3 and 7 days storage at room temperature in a sealed vial. The data from these analyses are summarized in FIG. 24, which (from top to bottom) provides the sample following 7 days storage (Form XVIII-7D-storage), the sample following 3 days storage (Form XVIII-3D-storage), and the sample immediately following crystallization (Form XVIII).
Form XIX room temperature stability was evaluated with XRPD. XRPD of a Form XIX sample immediately following crystallization (Form XIX) and following 7 days of storage (Form XIX-7D-storage) are shown in FIG. 26.
The stability of polymorphic Form V was over 10 days of storage at room temperature in a sealed vial. XR-PD was performed following 0, 3, and 10 days storage.
To evaluate Form VI stability, XRPD spectra of a Form VI sample were collected following 0, 3, and 14 days of room temperature storage in a sealed vial. The resulting XRPD patterns of the sample following 0 (Form VI), 3 (Form VI-3D-storage), and 14 days storage (Form VI-14D-storage) are shown in FIG. 30.
The stability of polymorphic Form VII was evaluated over 7 days of storage at room temperature in a sealed vial. Portions of the Form VII samples were collected for XRPD analysis over 7 days of storage, the results of which are shown in FIG. 32.
Form VIII stability over 7 days storage in a sealed vial at room temperature was evaluated with XRPD.
The stability of Form IX generated by precipitation from an ethyl acetate/heptane solvent system (Form IX Recrystallization (1)) was evaluated over 7 days of storage at room temperature. Portions of the Form IX sample were collected following 0 and 7 days of storage in a sealed vial and analyzed by XRPD analysis to identify possible changes in the polymorph.
Form IX stability was separately characterized for crystals generated through the addition of (Z)-endoxifen saturated ethyl acetate to heptane (Form IX Recrystallization (2)), which yielded higher crystallinity Form IX than was afforded by heptane addition to (Z)-endoxifen saturated ethyl acetate.
Form IX stability was further evaluated for crystals generated by precipitation from an acetone/butyl methyl ether (acetone/BME) solvent/antisolvent mixture (Form IX Recrystallization (4)). Portions of the Form IX sample were collected following 0 and 5 days of storage in a sealed vial at room temperature and compared to reference XRPD patterns of Forms VII and IX. […]

[3] = Slurries with amorphous (Z)-endoxifen (XRPD); format: physicochemical; details: for Polymorphic form recovered (XRPD): 22 days stirring at room temperature
Protocol: Further slurry experiments were performed utilizing amorphous (Z)-endoxifen as an input. 20 mg of amorphous (Z)-endoxifen was suspended in 200 μl of various solvent mixtures. Following 22 days of stirring at room temperature, solid (Z)-endoxifen was recovered from the slurries during centrifugation at 4000 rpm for 3 minutes with a nylon filter (0.22 μm).

[4] = Mechanical stability: grinding and kneading by ball milling (XRPD); format: physicochemical
Protocol: Stability tests were performed on mixtures of Form I and Form IV; Form I and Form VII; and Form I, Form IV, and Form VII. In a first mechanical stability test, the polymorphs were analyzed by XRPD following 10 minutes of grinding by ball milling at 30 Hz. In a second mechanical stability test, the polymorphs were analyzed by XRPD following 10 minutes of kneading by ball milling at 30 Hz in the presence of a catalytic amount of 2-propanol (2 μl).

[5] = Stability at various temperatures and relative humidities, seven days (XRPD); format: physicochemical; details: 7 days
Protocol: The stabilities of the polymorphs were also assessed at various temperatures and relative humidities. These analyses were performed by storing 20 mg of polymorph samples for seven days at: (1) 25° C. and 100% relative humidity, (2) 40° C. and 75% relative humidity, (3) 25° C. and 60% relative humidity, and (4) at 60° C. and 75% relative humidity. XRPD was collected on the samples following these incubations and compared to XRPD of the samples prior to storage.

[6] = Thermal treatment of Form IV at 90° C. and 50 mbar (XRPD); format: physicochemical
Protocol: To confirm the DSC results, Form IV deterioration was subject to thermal treatment by incubation for 1 hour at 90° C. and 50 mbar, storage for 18 hours at room temperature, and a second incubation for 3.5 hours 90° C. and 50 mbar. XRPD analysis was performed on the sample following the 1 hour incubation at 90° C. and 50 mbar, after the 18 hours of storage at room temperature, and after the final 3.5 hour incubation 90° C. and 50 mbar.

[7] = Thermogravimetric analysis (TGA), degradation; format: physicochemical
Protocol: The TGA profile of Form I is shown in the top panel of FIG. 12 with the heat-flow profile in the middle panel of FIG. 12, and the first derivative of the TGA profile in the bottom pane of FIG. 12. […] A weight loss of 0.2% was detected between 140° C. and 180° C., potentially ascribable to solvent release. Degradation of Form I took place above 270° C. The heat-flow profile included two main peaks around 50° C. and 160° C. The first derivative of the TGA profile indicated a greatest decline in the TGA profile occurred around 400° C., and that weight loss occurred around 320° C.

SMILES: CC/C(=C(\c1ccccc1)c1ccc(OCCN(C)C)cc1)c1ccccc1 [tamoxifen, (Z)-2-[4-(1,2-diphenyl-1-butenyl)phenoxy]-N,N-dimethylethanamine]
- Terminal elimination half-life ([1]; in vivo): 120 to 170 h
- Peak concentration time ([1]; post-dose): approximately 5 hours
- Reported therapeutic levels of plasma tamoxifen ([1]; subjects dosed with 20 mg of oral tamoxifen): ≥ 30 nM

- Output Main phase [phase] ([3]; SLRT: acetone/tetrahydrofuran 90/10, 100 mg/mL, RT, 22 d, amorphous input): Form I
- Polymorphic form recovered (XRPD) ([3]; acetone/tetrahydrofuran slurry): Form I with additional unassigned peaks
- Polymorphic form recovered (XRPD) ([3]; ethyl acetate/heptane slurry): Form IX
- Polymorphic form recovered (XRPD) ([3]; one of the 2-propanol/tetrahydrofuran slurries): Form IV
SMILES: CC/C(=C(\c1ccc(O)cc1)c1ccc(OCCNC)cc1)c1ccccc1 [amorphous (Z)-endoxifen, (Z)-endoxifen]
- XRPD change on storage ([2]; 18 days): stable and does not convert into other polymorphic forms

- XRPD change on storage ([2]; 7 days, sealed vial): stable under ambient conditions
- XRPD pattern after kneading ([4]; 10 minutes ball milling at 30 Hz with catalytic 2-propanol (2 μl)): mixture of Form I and Form IV
- XRPD pattern after storage ([5]; 25° C. and 100% relative humidity): Form I with trace of Form IV
- XRPD pattern after storage ([5]; 40° C. and 75% relative humidity): Form I with minor traces of Form IV
- XRPD pattern after thermal treatment ([6]; after 1 hour at 90° C. and 50 mbar): Form IV with traces of Form I
- XRPD pattern after thermal treatment ([6]; after final 3.5 hour treatment at 90° C. and 50 mbar (following 1 hour at 90° C. and 18 hours at room temperature)): Form IV with traces of Form I
- Degradation temperature (TGA) [7]: above 270 °C
- Degradation temperature (TGA) ([7]; sample from scaled-up crystallization): above 270 °C
SMILES: CC/C(=C(\c1ccc(O)cc1)c1ccc(OCCNC)cc1)c1ccccc1 [Form IV, (Z)-endoxifen]
- XRPD change on storage ([2]; 15 days, sealed vial, sample crystallized from 2-propanol/THF 95/5 (v/v)): maintained a Form IV XRPD pattern following 15 days storage, its XRPD spectrum also exhibited a new signal at 16.1° 2θ
- XRPD pattern after mechanical grinding ([4]; 10 minutes ball milling at 30 Hz): Form I with a mild signal at 4.8° 20 ascribable to Form IV
